We go through 5 compounds from US20120277409A1, “METAL-POLYSACCHARIDE CONJUGATES: COMPOSITIONS, SYNTHESIS AND METHODS FOR CANCER THERAPY” (priority 2007, published 2012).

Entries after “also recorded” stand apart in the source; their conditions may differ. Like-named read-outs stand apart in the source and are kept apart here.

Series [1] relates to PARP / caspase-3 cleavage in 2008-c13 cells. The series can be described thus: Western blot of cleaved PARP and cleaved caspase-3. Format: cell-based, human. The following applies: 48 hours; for cleaved PARP expression: 2008-c13 cells; for cleaved caspase-3 expression: 2008.C13 cells. Here is the method: The effect of the platinum-polysaccharide conjugate of Example 1 on tumor cells was analyzed by treating 2008-c13 […] cells with the conjugate, then analyzing the effects on cellular proteins through a Western blot (FIG. 11).
To determine whether apoptosis is induced through a caspase-3-dependent pathway followed by the cleavage of PARP, levels of cleaved caspase-3 and PARP, which form after caspase-3 activation, were determined by Western blot analysis.
(In general: In western blotting, separated proteins are transferred to a membrane and probed.)

The test system of series [2] is platinum-resistant ovarian cancer cell line 2008-c13. The series can be described thus: TUNEL assay of apoptosis. Format: cell-based, human. As to conditions: 48 hours, compared at each dose, P<0.05. From the text:
DNA fragmentation typical of apoptosis was further determined by the TUNEL assay in three independent experiments.

Series [3] has as its system p21 and cyclin A in 2008.C13 cells. The series can be described thus: p21 and cyclin A expression (Northern/Western blot). Format: cell-based, human. The following applies: 48 hours of drug exposure. Here is the method: To elucidate the mechanism underlying S-phase arrest caused by CDDP and PC in 2008.C13 cells, the expression of p21 and cyclin A, which are important for cell-cycle regulation in the S phase, was examined in 2008.C13 cells after 48 hours of drug exposure.

Series [4] deals with platinum-resistant ovarian cancer cell line 2008-c13. Description: Flow cytometry (propidium iodide) of apoptosis / sub-G1 fraction. As to conditions: for sub-G1 fraction (hypodiploid cells): 48 hours and 72 hours of drug exposure, same doses. Format: cell-based, human. Here is the method: To determine the effectiveness of platinum-polysaccharide conjugate (PC) against platinum-resistant ovarian cancer cells, 2008-c13 cells ([…]) were treated with platinum-polysaccharide conjugate (PC). The cells were trypsinized and centrifuged at 2500 rpm for 5 min. After being washed with 1×PBS two times, cells were fixed with 70% ethanol overnight, washed twice with 1×PBS, and resuspended in 1 mL of propidium iodide (PI) solution (1×10^6 cells/mL). RNase (20 μg/mL) solution was added followed by 1 mL of propydium iodide solution (PI, 50 μg/mL in PBS). Samples were incubated at 37° C. for 15 min, and PI fluorescence was analyzed using a EPIS XL analyzer.
This effect was tested by flow cytometry in the 2008.C13 cell line after 48 hours and 72 hours of drug exposure.
Background: Flow cytometry measures light scatter and fluorescence of single cells or particles in a stream.

The test system of a further series is 2008.C13 cells. Description: Flow cytometric cell-cycle analysis (S-phase arrest). Format: cell-based, human. As to conditions: 48 hours.
Series [5] in a line: In vitro determination of relaxivity (T1, 7.0 T). Format: physicochemical. As to conditions: in water, Gd 0.01-0.08 mM. As to the method: Solutions of Gd-EDTA-chitosan and Gd-DTPA were prepared in water at Gd concentrations of 0.01 mM, 0.02 mM, 0.04 mM and 0.08 mM. Spin lattice (T1) relaxivity was measured at 7.0 T. R1 in mM^−1s^−1 was obtained from linear last-squares determination of the slopes of 1/T1 vs [Gd] plot. R1 was calculated as 3.61 and […] for Gd-DTPA and Gd-EDTA-chitosan, respectively.

In series [6] the test system is breast cancer cells (13762NF) tumor. The series can be described thus: Anticancer effect in breast tumor-bearing rat model. Format: in vivo. The following applies: for tumor volume: single dose (Pt 10 mg/kg or chondroitin only). Here is the method:
Female Fischer 344 rats (125-175 g) were inoculated with breast cancer cells (13762NF, 10^6 cells/rat, s.c. in the hind leg). After 15-20 days and a tumor volume of […], the breast tumor-bearing rats were administered either the platinum-chondroitin (Platinum-polysaccharide) conjugate (PC) or chondroitin alone at doses of 10 mg Pt/kg (platinum (IV)-polysaccharide) or 45 mg/kg (chondroitin). Tumor volumes and body weight were recorded daily for sixty days. Tumor volumes were measured as [length (l)×width (w)×thickness (h)]/2. Loss of body weight of 15% is considered a chemical-induced toxic effect. […] After treatment with platinum-polysaccharide conjugate, tumor tissues were dissected and embedded in […]. The tumor tissue was fixed in paraffin, and stained with hematoxylin and eosin for histological examinations.

Series [7] deals with platinum-resistant ovarian cancer cells (2008-c13). As to the method:
All cells were cultured at 37° C. in a humidified atmosphere containing 5% CO2 in RPMI 1640 medium supplemented with 10% fetal bovine serum and glutamine (2 mM). 2008 or 2008.C13 cells were seeded into 96-well plates (4,000 cells/well) and maintained in RPMI 1640 medium for 24 hours. […] Controls were treated with DMSO or PBS. After cells were treated, their growth and viability were determined by incubating the cells for 1 to 2 hours at 37° C. with 20 μL of tetrazolium substrate. Absorbence was measured at 450 nm using a 96-well Synergy HT-microplate reader (Biotek, Winooski, Vt.) The rate of cell growth inhibition was expressed as a percentage as follows: […]. The experiments were repeated separately three times. Methylene tetrazolium (MTT) dye assay determined the amount of viable cells. Cellular protein content was determined by Lowry assay. The drug concentration that inhibits 50% of cell growth (IC-50) was then determined Data are expressed as the percentage differences compared with controls (OD of cells after treatment/OD of cells without treatment).

Regarding `N.N.[Cl][Pt][Cl]` [CDDP, cis-diamminedichloroplatinum (II), reference compound], in series [1], the “cleaved PARP expression” value is reported as “increased from 2.5 μg/mL to 20 μg/mL” and the “cleaved caspase-3 expression” value was “expressed in a pattern similar to that of PARP”. Moreover, the “apoptotic cells by TUNEL” value in series [2] is on record as “dose-dependent increase”. Also, in series [3], the “cyclin A expression” value is listed as “Neither p21 nor cyclin A expression was related to the extent of S-phase arrest” and the p21 expression result is recorded as “Neither p21 nor cyclin A expression was related to the extent of S-phase arrest”. Also, the “sub-G1 fraction (hypodiploid cells)” value in series [4] is “dose-dependent increase”. For the same compound, the “maximal S-phase arrest” value with 2008.C13 cells (20 μg/mL) came out at 84.8%.

`O=C([O-])CN(CCN(CC(=O)[O-])CC(=O)O)CCN(CC(=O)[O-])CC(=O)O.[Gd+3]` [Gd-DTPA, reference compound] had an R1 (spin lattice T1 relaxivity) in series [5] of 3.61 mM⁻¹ s⁻¹.

Consider “Cis-1,2-DACH-dichloro-Pt (IV)-aspartate-chondroitin [PC]”, for which the “cleaved PARP expression” value in series [1] is on record as “significantly increased; also recorded: cleaved PARP expression induced by high-dose (20 μg/mL) PC appeared to be lower than that induced by low-dose PC”. Also, the “cleaved caspase-3 expression” value in series [1] is “comparable to that in the CDDP-treated group, except for the lower expression seen at 5 μg/mL”. Also, the “effect against breast tumor growth (in words)” value in series [6] (10 mg Pt/kg) was “effective in vivo against breast tumor growth”. Further, the tumor volume was determined as 5.2661 cm^3 in series [6] (24 hours) and 0.8782 cm^3 in series [6] (94 hrs). Also, in series [6] (94 hrs post-administration), the “tumor necrosis (H & E histology)” value is reported as “Extensive necrosis”. For the same compound, in series [2], the “apoptotic cells by TUNEL” value is given as “many more cells experiencing apoptosis; also recorded: much higher levels of apoptosis”. Moreover, the “cyclin A expression” value in series [3] was “up-regulated after high-dose PC treatment and was maintained at a low level after low-dose PC treatment”. In addition, the p21 expression entry in series [3] is recorded as “up-regulated with maximal S-phase arrest after low-dose PC treatment, but not after high doses; also recorded: increased p21 expression”. For the same compound, the “apoptotic effect by flow cytometry” value in series [4] (2.5 and 5 μg/mL, compared to cisplatin) is “significantly enhanced the apoptotic effect”. In series [4], the “sub-G1 fraction (hypodiploid cells)” value is “more pronounced increase in the sub-G1 fraction; also recorded: substantially more sub-G1 cells than did CDDP”. The “enhancement of tumor killing compared with cisplatin” value in series [7] (2.5 μg/mL, 48 hours) is recorded as 5.9 times; in series [7] (2.5 μg/mL, 72 hours), 9.3 times; in series [7] (5 μg/mL, 48 hours), 4.6 times; in series [7] (5 μg/mL, 72 hours), 1.5 times. In addition, the “cell growth inhibition (in words)” value in series [7] (low doses) is given as “significantly inhibit cell growth”. The S-phase arrest with 2008.C13 cells (2.5 μg/mL) was 90.3%; with 2008.C13 cells (5 μg/mL), 90.1%.

Gd-EDTA-chitosan: the “R1 (spin lattice T1 relaxivity)” value in series [5] was 9.59 mM⁻¹ s⁻¹.

Turning to chondroitin [reference compound], the tumor volume in series [6] (24 hours) was 5.2591 cm^3; in series [6] (94 hrs), 14.3622 cm^3.
